According to patent publication US7754064B2, “Methods and apparatus for the on-site production of hydrogen peroxide” (Eltron Research & Development, priority 2006, dated 2010):

What was measured:
Vibrio hollisae = settings: 20° C., 3-50 ppm H2O2, 6-30 minutes exposure
Description: A stock culture of Vibrio hollisae was diluted to 1×10-5 with micropore filtered seawater (FSW). The dilution was calculated to yield a sample density of roughly 350 CFUs/mL after 48 hr of grow up. The experimental matrix consisted of peroxide concentration versus exposure time. The bacteria were exposed to the peroxide in liquid cultures, and then the treated bacteria were plated onto agar plates and colony counts done at 24 and 48 hrs. Data were analyzed for LD-100 conditions for maximal effect at lowest concentration and shortest exposure time. Six tubes of 5 mL bacterial culture were prepared. […] A control sample containing NO peroxide was also prepared. At each treatment exposure time point (6, 10, 15, and 30 minutes respectively), 1 mL was removed from each tube and filtered through a mixed cellulose ester filter (0.45 micron pore size, 47 mm dia., Fisher #09-719-1A). Each filter was then placed onto a TCBS (thiosulfate, citrate, bile, and sucrose) media plate and incubated for 48 hr at room temperature (23° C.). Standard colony counts were then made for the entire filter for each treatment condition. The procedure was repeated in triplicate. For each repetition, three separate samples (batches) were prepared and two duplicate trials were run for each batch sample. The results were statistically analyzed using ANOVA and paired student t-test paired comparisons. […]

Pseudomonas cepacia = settings: alkaline solutions of 1000 ppm H2O2, filtration units
biofouling = settings: cited from earlier work
Perkinsus marinus = settings: treatment time 30 minutes, four trials
Description: The final series of trials explored the effectiveness of the treatment against the protozoan Perkinsus marinus which is pathogenic to shellfish and causes the disease Dermo. Essentially the same protocol used for QPX was adapted to Perkinsus and represented a novel method of determining Perkinsus viability after disinfection treatments. Here four duplicate trials were run, again with a treatment time of 30 minutes.

Description for QPX (Quahog Parasite-X): For the QPX studies, a stock QPX culture (Quahog Parasite-X, a protista slime mold causing shellfish disease) was washed three times in sterile nature seawater (NSW) to remove the nutrient media and disperse the encapsulating mucous mass. The washed sample was then re-suspended in sterile NSW (working culture). A sample aliquot was removed and diluted (1:1) in sterile NSW to determine the actual cell density. […] A control sample with NO peroxide in the treatment solution was also prepared. […] After incubation (48 hrs) the remainder of the innocula were centrifiged at 10,000 G for 2 minutes. All fluid was removed from the tube to leave a final volume of 100 μL. Propidium iodide (100 μL; 20 g/mL) was added to each tube and allowed to sit for 30 minutes in the dark at room temperature. The tubes were then centrifuged (10,000 G for 2 minutes) and the resulting pellet washed three times with filtered NSW (250 μL). After the third wash, 200 μL of fluid was removed from each tube and the pellet was re-suspended in the remaining 50 μL of fluid. The fluids generated from this preparation were added to a Neubauer hemocytometer counting chamber and the cell concentrations were determined between treatments. […]
Excerpt for mixed plankton: This study largely entailed LD50 and LD100 lethality screening of the target chemistry produced by the electrolytic system under development to natural marine organisms. Specifically, the work focused on organisms with sizes of less than 100 μm as larger organisms can be readily eliminated by other technologies (screening or hydrocyclones). Within this size regime normal crustaceans, planktons, and etc. obtained by trawling were targeted. […] For the trawled organisms and the protozoan, destruction was noted by lack of motility.
Mixed indigenous zooplankton (these provided random samples of a variety of organisms as might be encountered in ballast water) were obtained by plankton trawls from the waters off Woods Hole, Mass. and the toxicity assays focused on zooplankton (such as dinoflagellates which are less prone to sedimentation than say diatoms) where viability could be readily assessed through motility monitoring. After the samples were collected they were counted and separated into sample populations under a dissecting scope with a low heat lamp using standard techniques. […]
Toxicity studies were performed on the targeted plankton samples by exposing them to synthetic cell product and monitored until mortality occurred. […]

OO [hydrogen peroxide]
time dosage values sufficient to achieve 2 log kills (99%) (Vibrio hollisae): 1000 to 2000 ppm min.
Pseudomonas cepacia eliminated (Pseudomonas cepacia): more than 100%
log kill of Pseudomonas cepacia (Pseudomonas cepacia): 7 log
average viable cell count (QPX (Quahog Parasite-X); 10 ppm H2O2, 30 min., 20° C., average of two trials): 430 cells/L
resistance to the treatment compared with general plankton and Vibrio ssp. (QPX (Quahog Parasite-X); 30 minutes treatment, 0-150 ppm): slightly more resistant
concentration typically required for sufficient effectiveness in sterilization (biofouling; industrial disinfection (powerplant biofouling, sewage treatment)): 50-200 ppm
concentration that can be effective towards fouling control (biofouling; recent data): 2 ppm
time*dosage factor for plankton kill (mixed plankton; mixed plankton, 4, 10 and 20° C., from LD-50 and LD-100, averaged over four concentrations): 1000 to 3000 ppm min.
LD50's as percent of 100% mortality times (mixed plankton; mixed zooplankton in natural seawater with added H2O2): 40-50%
time*dosage values sufficient to reduce occurrence of Perkinsus to hinder spread of disease (Perkinsus marinus): 1500 to 5000 ppm
